Patent US6737383B1, “Herbicidal oxadiazolidines” (priority 1999, dated 2004)

Legend:
surinam grass = experiment: Test B pre/postemergence surinam grass; type: in vivo, Brachiaria decumbens
How it was run: (§1)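 Herbicidal effect was estimated by eye on a ten-point control scale after plants spent twelve to sixteen days in a greenhouse following soil or foliar treatment. Foliar sprays targeted plants at one to four leaves; all doses were formulated in a non-phytotoxic solvent with surfactant.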

bamyardgrass = experiment: Test B flood test barnyardgrass; type: in vivo, Echinochloa crus-galli
How it was run: (§2)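 Plants were grown to the 2-leaf stage before treatment with test chemical, then held in a greenhouse for twelve to sixteen days. Injury was visually rated against untreated controls on a 0–10 scale, where 0 is no effect and 10 is complete control.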

velvetleaf = experiment: Test B pre/postemergence velvetleaf; type: in vivo, Abutilon theophrasti; conditions: for Plant response rating, Velvetleaf: Postemergence
How it was run: as §1

smallflower flatsedge = experiment: Test B flood test smallflower flatsedge; type: in vivo, Cyperus difformis
How it was run: as §2

sugar beet = experiment: Test B pre/postemergence sugar beet; type: in vivo, Beta vulgaris; conditions: for Plant response rating, Sugarbeets: Postemergence
How it was run: as §1

corn = experiment: Test B pre/postemergence corn; type: in vivo, Zea mays
How it was run: as §1

blackgrass = experiment: Test B pre/postemergence blackgrass; type: in vivo, Alopecurus myosuroides
How it was run: as §1

wild oat = experiment: Test B pre/postemergence wild oat; type: in vivo, Avena fatua; conditions: for Plant response rating, Wild oats: Postemergence
How it was run: as §1

bedstraw = experiment: Test B pre/postemergence bedstraw; type: in vivo, Galium aparine
How it was run: as §1

cocklebur = experiment: Test B pre/postemergence cocklebur; type: in vivo, Xanthium strumarium
How it was run: as §1

rape = experiment: Test B pre/postemergence rape; type: in vivo, Brassica napus
How it was run: as §1

crabgrass = experiment: Test B pre/postemergence crabgrass; type: in vivo, Digitaria sanguinalis
How it was run: as §1

pigweed = experiment: Test B pre/postemergence pigweed; type: in vivo, Amaranthus retroflexus; conditions: for Plant response rating, Redroot pigweed: Postemergence
How it was run: as §1

wheat = experiment: Test B pre/postemergence wheat; type: in vivo, Triticum aestivum; conditions: for Plant response rating, Wheat: Postemergence
How it was run: as §1

soybean = experiment: Test B pre/postemergence soybean; type: in vivo, Glycine max; conditions: for Plant response rating, Soybean: Postemergence
How it was run: as §1

purple nutsedge = experiment: Test B pre/postemergence purple nutsedge; type: in vivo, Cyperus rotundus
How it was run: as §1

[1] = Postemergence, Rate 62 g/ha, scale of 0 to 10, 0 is no effect, 10 is complete control
[2] = Postemergence, Rate 125 g/ha, scale 0 to 10, 0 is no effect, 10 is complete control
[3] = Postemergence, Rate 500 g/ha, scale of 0 to 10 where 0 is no effect and 10 is complete control
[4] = Preemergence, Rate 62 g/ha, scale 0 to 10 (0 no effect, 10 complete control)
[5] = Preemergence, Rate 125 g/ha, scale 0 to 10, 0 is no effect, 10 is complete control
[6] = Preemergence, Rate 500 g/ha, scale of 0 to 10 where 0 is no effect and 10 is complete control
[7] = Rate 250 g/ha, Postemergence, scale of 0 to 10 where 0 is no effect and 10 is complete control
[8] = Rate 62 g/ha, flood test species, Pre-emergence, visual evaluation after twelve to sixteen days
[9] = Rate 125 g/ha, under heading Pre-emergence, flood test species, visual evaluation after twelve to sixteen days
[10] = Rate 250 g/ha, Pre-emergence (flood test species), scale 0 to 10, 0 is no effect, 10 is complete control
[11] = Rate 500 g/ha, Pre-emergence section of Table B, 0 to 10 scale (0 no effect, 10 complete control)
[12] = Rate 500 g/ha, scale of 0 to 10 where 0 is no effect and 10 is complete control
[13] = Rate 250 g/ha, scale of 0 to 10 where 0 is no effect and 10 is complete control

In the case of `CC(C)N(C(=O)n1oc(=O)n(CC2CC2)c1=O)c1ccccc1` [Compound 568], the “B. signalgrass plant response rating” value (surinam grass; [1]) is reported as 1, the “B. signalgrass plant response rating” value (surinam grass; [2]) is reported as 4 and the “Plant response rating, B. signalgrass” value (surinam grass; [3]) is reported as 7. The “B. signalgrass plant response rating” value (surinam grass; [4]) was 3, the “B. signalgrass plant response rating” value (surinam grass; [5]) was 6 and the “B. signalgrass plant response rating (0 to 10 scale, 0 is no effect, 10 is complete control)” value (surinam grass; Preemergence, Rate 250 g/ha) was 8. The “B. signalgrass plant response rating” value (surinam grass; [6]) was 9, the “Plant response rating, B. signalgrass” value (surinam grass; [7]) was 7 and the “Plant response rating, Barnyardgrass (0 to 10 scale, 0 is no effect, 10 is complete control)” value (bamyardgrass; [8]) was 0. For the same compound, the “Barnyardgrass plant response rating (0 to 10 scale, 0 is no effect, 10 is complete control)” value (bamyardgrass; [9]) was 0, the “Barnyardgrass plant response rating” value (bamyardgrass; [10]) was 3 and the “Barnyardgrass plant response rating” value (bamyardgrass; [11]) was 6. For the same compound, the “Plant response rating, Velvetleaf” value (velvetleaf; [12]) was 8, the “Velvetleaf plant response rating” value (velvetleaf; [4]) was 5 and the “Velvetleaf plant response rating” value (velvetleaf; [5]) was 6. The “Velvetleaf plant response rating (0 to 10 scale)” value (velvetleaf; Preemergence, Rate 250 g/ha) was 6, the “Velvetleaf plant response rating” value (velvetleaf; [6]) was 7 and the “Plant response rating, Velvetleaf” value (velvetleaf; [13]) was 5. The “Plant response rating, S. Flatsedge (0 to 10 scale, 0 is no effect, 10 is complete control)” value (smallflower flatsedge; [8]) was 0, the “S. Flatsedge plant response rating (0 to 10 scale, 0 is no effect, 10 is complete control)” value (smallflower flatsedge; [9]) was 0 and the “S. Flatsedge plant response rating” value (smallflower flatsedge; [10]) was 0. The “S. Flatsedge plant response rating” value (smallflower flatsedge; [11]) was 4, the “Plant response rating, Sugarbeets” value (sugar beet; [12]) was 2 and the “Sugarbeets plant response rating” value (sugar beet; [4]) was 5. The “Sugarbeets plant response rating” value (sugar beet; [5]) was 5, the “Sugarbeets plant response rating (0 to 10 scale)” value (sugar beet; Preemergence, Rate 250 g/ha) was 6 and the “Sugarbeets plant response rating” value (sugar beet; [6]) was 8. For the same compound, the “Plant response rating, Sugarbeets” value (sugar beet; [13]) was 1, the “Corn plant response rating” value (corn; [1]) was 0 and the “Corn plant response rating” value (corn; [2]) was 0. For the same compound, the “Plant response rating, Corn” value (corn; [3]) was 5, the “Corn plant response rating” value (corn; [4]) was 0 and the “Corn plant response rating” value (corn; [5]) was 4. The “Corn plant response rating (0 to 10 scale)” value (corn; Preemergence, Rate 250 g/ha) was 5, the “Corn plant response rating” value (corn; [6]) was 9 and the “Plant response rating, Corn” value (corn; [7]) was 4. The “Blackgrass plant response rating” value (blackgrass; [1]) was 8, the “Blackgrass plant response rating” value (blackgrass; [2]) was 8 and the “Plant response rating, Blackgrass” value (blackgrass; [3]) was 9. For the same compound, the “Blackgrass plant response rating” value (blackgrass; [4]) was 5, the “Blackgrass plant response rating” value (blackgrass; [5]) was 8 and the “Blackgrass plant response rating (0 to 10 scale)” value (blackgrass; Preemergence, Rate 250 g/ha) was 8. For the same compound, the “Blackgrass plant response rating” value (blackgrass; [6]) was 9, the “Plant response rating, Blackgrass” value (blackgrass; [7]) was 8 and the “Plant response rating, Wild oats” value (wild oat; [12]) was 6. The “Wild oats plant response rating” value (wild oat; [4]) was 5, the “Wild oats plant response rating” value (wild oat; [5]) was 5 and the “Wild oats plant response rating (0 to 10 scale)” value (wild oat; Preemergence, Rate 250 g/ha) was 6. The “Wild oats plant response rating” value (wild oat; [6]) was 8, the “Plant response rating, Wild oats” value (wild oat; [13]) was 2 and the “Bedstraw plant response rating” value (bedstraw; [1]) was 0. For the same compound, the “Bedstraw plant response rating” value (bedstraw; [2]) was 2, the “Bedstraw plant response rating” value (bedstraw; [4]) was 0 and the “Bedstraw plant response rating (0 to 10 scale)” value (bedstraw; Preemergence, Rate 250 g/ha) was 3. For the same compound, the “Bedstraw plant response rating” value (bedstraw; [6]) was 8, the “Cocklebur plant response rating” value (cocklebur; [1]) was 1 and the “Cocklebur plant response rating” value (cocklebur; [2]) was 1. The “Plant response rating, Cocklebur” value (cocklebur; [3]) was 6, the “Cocklebur plant response rating” value (cocklebur; [4]) was 0 and the “Cocklebur plant response rating” value (cocklebur; [5]) was 0. The “Cocklebur plant response rating (0 to 10 scale)” value (cocklebur; Preemergence, Rate 250 g/ha) was 0, the “Cocklebur plant response rating” value (cocklebur; [6]) was 2 and the “Plant response rating, Cocklebur” value (cocklebur; [7]) was 1. For the same compound, the “Rape plant response rating” value (rape; [1]) was 0, the “Rape plant response rating” value (rape; [2]) was 0 and the “Plant response rating, Rape” value (rape; [3]) was 3. For the same compound, the “Rape plant response rating” value (rape; [4]) was 0, the “Rape plant response rating” value (rape; [5]) was 0 and the “Rape plant response rating (0 to 10 scale)” value (rape; Preemergence, Rate 250 g/ha) was 5. For the same compound, the “Rape plant response rating” value (rape; [6]) was 7, the “Plant response rating, Rape” value (rape; [7]) was 2 and the “Crabgrass plant response rating” value (crabgrass; [1]) was 8. For the same compound, the “Crabgrass plant response rating” value (crabgrass; [2]) was 8, the “Plant response rating, Crabgrass” value (crabgrass; [3]) was 9 and the “Crabgrass plant response rating” value (crabgrass; [4]) was 7. For the same compound, the “Crabgrass plant response rating” value (crabgrass; [5]) was 7, the “Crabgrass plant response rating (0 to 10 scale)” value (crabgrass; Preemergence, Rate 250 g/ha) was 9 and the “Crabgrass plant response rating” value (crabgrass; [6]) was 10. For the same compound, the “Plant response rating, Crabgrass” value (crabgrass; [7]) was 9, the “Plant response rating, Redroot pigweed” value (pigweed; [12]) was 2 and the “Redroot pigweed plant response rating” value (pigweed; [4]) was 2. The “Redroot pigweed plant response rating” value (pigweed; [5]) was 4, the “Redroot pigweed plant response rating (0 to 10 scale)” value (pigweed; Preemergence, Rate 250 g/ha) was 4 and the “Redroot pigweed plant response rating” value (pigweed; [6]) was 8. For the same compound, the “Plant response rating, Redroot pigweed” value (pigweed; [13]) was 0, the “Plant response rating, Wheat” value (wheat; [12]) was 5 and the “Wheat plant response rating” value (wheat; [4]) was 0. The “Wheat plant response rating” value (wheat; [5]) was 0, the “Wheat plant response rating (0 to 10 scale)” value (wheat; Preemergence, Rate 250 g/ha) was 0 and the “Wheat plant response rating” value (wheat; [6]) was 5. The “Plant response rating, Wheat” value (wheat; [13]) was 4, the “Plant response rating, Soybean” value (soybean; [12]) was 6 and the “Soybean plant response rating” value (soybean; [4]) was 0. The “Soybean plant response rating” value (soybean; [5]) was 0, the “Soybean plant response rating (0 to 10 scale)” value (soybean; Preemergence, Rate 250 g/ha) was 3 and the “Soybean plant response rating” value (soybean; [6]) was 9. For the same compound, the “Plant response rating, Soybean” value (soybean; [13]) was 6, the “Nutsedge plant response rating” value (purple nutsedge; [1]) was 0 and the “Nutsedge plant response rating” value (purple nutsedge; [2]) was 0. The “Plant response rating, Nutsedge” value (purple nutsedge; [3]) was 0, the “Nutsedge plant response rating” value (purple nutsedge; [4]) was 0 and the “Nutsedge plant response rating” value (purple nutsedge; [5]) was 0. For the same compound, the “Nutsedge plant response rating (0 to 10 scale)” value (purple nutsedge; Preemergence, Rate 250 g/ha) was 0, the “Nutsedge plant response rating” value (purple nutsedge; [6]) was 3 and the “Plant response rating, Nutsedge” value (purple nutsedge; [7]) was 0.
